Assay results: patent US20040076974A1, “Liver necrosis predictive genes” (priority 2002, published 2004)
Where “and” joins values, the source holds several entries; their conditions need not be identical. Equal entries are not always repeated. Where two headings read alike, the source gives them in different places.

How the values were obtained:
[1] = tested on: Sprague Dawley rats; details: rat, in vivo, ip; for Score (histopathology liver necrosis severity score): Sprague Dawley, 72 h
Procedure, shortened: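 Toxicity calls (necrosis present or absent at 72 h) and histopathology scores were correlated with tissue gene expression from Crl:CD Sprague Dawley rats. Animals, usually 3 treated with compound by i.p. route and 3 given vehicle, were killed at 6, 24 or 72 h and tissues frozen immediately in liquid nitrogen.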

[2] = tested on: toxicologically relevant rat genes (rat CT array); details: rat, in vivo

CC/C(=C(\c1ccccc1)c1ccc(OCCN(C)C)cc1)c1ccccc1 [tamoxifen]
Score (histopathology liver necrosis severity score) ([1]; 50 mg/kg): 1 | Score (histopathology liver necrosis severity score) ([1]; 200 mg/kg): 1 | Liver Necrosis ([1]; 50 mg/kg): no | Liver Necrosis ([1]; 200 mg/kg): no | 14-3-3 zeta expression [2]: 1.06 and 1.114 and 1.024 and 1.069 and 1.078 | 60S ribosomal protein L6 expression [2]: 1.136 and 1.258 and 1.391 (2×) and 1.1 | Adenine nucleotide translocator 1 expression [2]: 0.8038 and 0.8428 and 1.025 and 0.963 and 1.349 | Alpha-1 microglobulin/bikunin precursor (Ambp) expression [2]: 1.137 and 1.13 and 1.288 and 1.072 and 1.505 | Alpha-tubulin expression [2]: 0.9413 and 0.9605 and 0.9619 and 0.9049 and 1.355 | Aquaporin-3 (AQP3) expression [2]: 0.9813 and 0.7741 and 0.9894 and 0.9996 and 0.8864 | Beta-actin expression [2]: 0.7738 and 0.942 and 0.6998 and 1.204 | Beta-actin, sequence 2 expression [2]: 0.7894 and 1.034 and 1.023 and 0.5893 | Beta-tubulin, class I expression [2]: 0.7904 and 0.7769 and 1.118 and 1.041 and 1.416 | Biliverdin reductase expression [2]: 1.244 and 1.177 and 0.9432 and 0.9712 | CDK108 expression [2]: 0.7646 and 0.771 and 0.9296 and 1.067 and 0.6341 | Calpactin I heavy chain expression [2]: 1.24 and 0.9779 and 0.9969 and 0.9558 and 1.503 | Calpain 2 expression [2]: 1.074 and 1.028 and 1.069 | Cathepsin B expression [2]: 1.062 and 1.634 and 1.119 and 0.9643 and 1.263 | Cathepsin L, sequence 2 expression [2]: 0.793 and 1.456 and 0.963 and 0.9594 | Cathepsin S expression [2]: 0.8837 and 1.721 and 1.401 | Cyclin D1 expression [2]: 0.9348 and 0.6137 and 1.116 and 1.1 and 0.745 | Cystatin C expression [2]: 0.7987 and 0.8206 and 1.149 and 1.058 and 1.138 | Dynamin-1 (D100) expression [2]: 0.974 and 0.8723 and 0.9822 and 1.024 and 0.9733 | Elongation factor-1 alpha expression [2]: 1.144 and 1.188 and 1.098 and 0.9078 and 1.206 | Equilbrative nitrobenzylthioinosine-sensitive nucleoside transporter expression [2]: 1.073 and 0.9454 and 0.9032 and 1.004 and 0.9505 | F1-ATPase beta subunit expression [2]: 0.7234 and 0.6975 and 0.9473 and 0.9602 and 1.189 | Gamma-actin, cytoplasmic expression [2]: 0.982 and 0.9804 and 1.031 and 1.54 | Glutathione S-transferase theta-1 expression [2]: 0.8059 and 0.9415 and 0.8757 and 1.133 | High affinity IgE receptor gamma chain (FcERIgamma) expression [2]: 0.9724 and 1.018 and 1.021 and 1.327 | Hypoxanthine-guanine phosphoribosyltransferase expression [2]: 0.7468 and 0.8598 and 0.8651 and 0.806 and 0.9251 | IgE binding protein expression [2]: 1.306 and 1.678 and 1.071 and 1.114 and 1.302 | JNK1 stress activated protein kinase expression [2]: 0.666 and 0.9165 and 0.9272 and 0.962 and 0.7174 | Melanoma-associated antigen ME491 expression [2]: 1.025 and 1.238 and 1.062 and 1.098 and 1.559 | Multidrug resistant protein-1 expression [2]: 1.082 and 1.58 and 1.118 and 1.184 and 0.9501 | Multidrug resistant protein-2 expression [2]: 0.8809 and 1.298 and 1.165 and 1.156 and 0.7835 | N-hydroxy-2-acetylaminofluorene sulfotransferase (ST1C1) expression [2]: 1.02 and 0.9797 and 0.9522 and 1.016 | NADP-dependent isocitrate dehydrogenase, cytosolic expression [2]: 0.865 and 1.545 | NIPK expression [2]: 1.08 and 1.011 and 0.9454 and 0.9651 | Organic cation transporter 3 expression [2]: 0.8883 and 1.096 and 1.263 | Ornithine decarboxylase expression [2]: 0.8334 and 1.039 and 1.055 and 1.097 and 1.469 | Osteoactivin expression [2]: 1.459 and 1.435 and 0.9157 and 0.9271 and 1.449 | Paraoxonase 1 expression [2]: 0.7398 and 0.6886 and 1.221 and 1.224 | Phase-1 RCT-24 expression [2]: 0.8968 | Phase-1 RCT-39 expression [2]: 1.47 and 0.9339 and 0.9947 | Phase-1 RCT-43 expression [2]: 0.9905 and 0.9704 and 0.9375 | Phase-1 RCT-57 expression [2]: 0.8991 and 0.6888 | Phase-1 RCT-78 expression [2]: 0.8505 and 0.8237 | Phase-1 RCT-81 expression [2]: 1.102 | Phase-1 RCT-107 expression [2]: 0.9169 and 0.6899 | Phase-1 RCT-109 expression [2]: 0.6916 | Phase-1 RCT-117 expression [2]: 0.9421 and 0.9667 | Phase-1 RCT-138 expression [2]: 0.9832 | Phase-1 RCT-144 expression [2]: 0.8629 | Phase-1 RCT-146 expression [2]: 0.9994 | Phase-1 RCT-149 expression [2]: 1.1 and 0.8836 | Phase-1 RCT-154 expression [2]: 0.8651 and 0.9418 and 0.9917 | Phase-1 RCT-156 expression [2]: 1.103 | Phase-1 RCT-164 expression [2]: 0.9378 and 0.8318 and 0.9484 | Phase-1 RCT-173 expression [2]: 0.7045 and 0.5898 | Phase-1 RCT-174 expression [2]: 0.7203 and 0.6816 | Phase-1 RCT-179 expression [2]: 1.2 and 0.9105 and 1.544 | Phase-1 RCT-192 expression [2]: 0.999 | Phase-1 RCT-207 expression [2]: 0.9742 | Phase-1 RCT-211 expression [2]: 0.8217 and 0.6431 | Phase-1 RCT-213 expression [2]: 0.8004 | Phase-1 RCT-227 expression [2]: 0.8538 | Phase-1 RCT-260 expression [2]: 0.974 and 0.93 | Phase-1 RCT-290 expression [2]: 0.5411 and 0.6526 | Poly(ADP-ribose) polymerase expression [2]: 0.8263 and 1.077 and 0.8901 and 0.8489 and 1.291 | Pyruvate kinase, muscle expression [2]: 1.141 and 1.584 and 1.146 and 1.081 and 0.8598 | Ribosomal protein L13A expression [2]: 1.178 and 0.9908 and 0.8711 | Ribosomal protein S8 expression [2]: 1.069 and 1.043 and 1.983 and 1.441 | Ribosomal protein S17 expression [2]: 0.9563 and 0.9932 and 1.772 and 1.494 | Stathmin expression [2]: 0.8925 and 1.067 and 1.025 and 0.9726 and 0.8514 | Thioredoxin-1 (Trx1) expression [2]: 0.9876 and 1.146 and 1.089 and 0.8216 and 0.7283 | Thymosin beta-10 expression [2]: 0.8732 and 1.234 and 1.068 and 0.8379 | Tissue plasminogen activator expression [2]: 0.8347 and 0.7599 and 0.9719 and 1.009 and 1.011 | Transitional endoplasmic reticulum ATPase expression [2]: 0.9168 and 0.8359 and 1.015 and 0.9607 and 1.436 | Ubiquitin conjugating enzyme (RAD 6 homologue) expression [2]: 0.9338 and 0.984 and 0.8685 and 0.6936 and 1.384 | Uncoupling protein 2 expression [2]: 1.105 and 1.472 and 1.007 and 0.9206 | Zinc finger protein expression [2]: 0.8577 and 1.115 and 0.9673 and 0.8957 and 1.145 | p55CDC expression [2]: 1.198 and 1.343 and 1.163 and 1.148 and 0.9509 | {Phase-1 RCT 98} expression [2]: 0.8993 and 0.665 and 1.028 and 1.025 | {Ribosomal protein 16} expression [2]: 1.136 and 1.255 and 1.519
